Test results reported in patent publication US12384800B2, “Antitumoral compounds” (priority 2017, dated 2025).
Where “and” joins values, the source holds several entries; their conditions need not be identical. Equal entries are not always repeated.

Legend:
[1] = tested on: Lewis lung carcinoma; details: U.S. Pat. No. 5,149,804; cited from earlier work
[2] = MTMD (Maximum Tolerated Multiple Dose) determination, iv weekly x 3; assay type: in vivo; details: mice; iv/Q7d × 3
Source text: (§1) Female CD-1 or Athymic Nude-Fox1 nu/nu mice (Envigo) were utilized for all experiments. […] Animals were acclimated for five days prior to being individually tattoo-identified. Animal protocols were reviewed and approved according to the regional Institutional Animal Care and Use Committees.
(§2) Mice were randomly allocated into experimental groups and intravenously administered, once for the MTD (Maximum Tolerated Dose) determination or one administration a week during three consecutive weeks, for the MTMD (Maximum Tolerated Multiple Dose) determination study. The animals were administered with white formulation or with compound dissolved in the experimental formulation at different concentrations. The volume administered was always […]. Once administered, animals were monitored for clinical signs of systemic toxicity, changes in body weight and mortality up to 14 days after the administration.

[3] = tested on: B16 melanoma; details: U.S. Pat. No. 5,149,804; cited from earlier work
[4] = tested on: P388 lymphoma; details: U.S. Pat. No. 5,149,804; cited from earlier work
[5] = tested on: HGC27 tumors; assay: Human gastric xenograft, tumor volume
Protocol: (§4) Female athymic nu/nu mice (Harlan Laboratories Models, S.L. Barcelona, Spain or Envigo, Spain) were utilized for all experiments. Animal were housed in individually ventilated cages Sealsafe® Plus, Techniplast S.P.A.), up to ten per cage on a 12-hour light-dark cycle at 21-23° C. and 40-60% humidity. […] Animals were acclimated for at least 5 days prior to tumor implantation with a tumor cell suspension.
HGC27 cells were maintained in vitro at 37° C. with 5% CO2 in Iscove's Modified Dulbecco's Medium (Sigma Aldrich, Co). Culture cells were passage every 3 to 5 days on reaching confluence. Each animal was subcutaneously implanted (on the right flank using 26G needle and a 1 cc syringe) at 4-6 weeks of age with 5×10^6 HGC-27 cells suspended in 0.05 mL of a solution consisting of 50% Matrigel® (Corning Incorporated Life Sciences), 50% medium without serum or antibiotics.
(§5) Treatment tolerability was assessed by monitoring body weight evolution, clinical signs of systemic toxicity, as well as evidences of local damage in the injection site.
(§6) In Xenograft Studies with Other Cell Lines: • Tumor volume was calculated using the equation (a·b^2)/2, where a: length (longest diameter) and b: width (shortest diameter) were measured in mm by using digital caliper (Fowler Sylvac, S235PAT).
(§7) Treatments producing >20% lethality and/or 20% net body weight loss were considered toxic.

[6] = tested on: MDA-MB-231 tumors; assay: Human breast xenograft, tumor volume
Protocol: as §4
MDA-MB-231 cells were maintained in vitro at 37° C. with 5% CO2 in Dulbecco's Modified Eagle's Medium (Sigma-Aldrich, Co). Culture cells were passaged every 3 to 5 days upon reaching confluence.
as §5, §6, §7

[7] = tested on: HT1080 tumors; assay: Human fibrosarcoma xenograft, total diameter (tumor + leg)
[8] = tested on: A2780 tumors; assay: Human ovarian xenograft, tumor volume
Protocol: as §4
Culture cells were passaged every 3 to 5 days upon reaching confluence. Each animal was subcutaneously implanted (on the right flank using 26G needle and a 1 cc syringe) at 4-6 weeks of age with 10×10^6 A2780 cells suspended in 0.05 mL of a solution consisting of 50% Matrigel® (Corning Incorporated Life Sciences) and 50% medium without serum or antibiotics.
as §5, §6, §7

[9] = tested on: xenografted human tumor cell lines (breast, kidney and ovarian cancer); details: xenografted human tumor cell lines in mice (breast, kidney and ovarian cancer); cited from earlier work
[10] = tested on: H460 tumors; assay: Human lung (NSCLC) xenograft, tumor volume
Protocol: as §4
H460 cells were maintained in vitro at 37° C. with 5% CO2 in Dulbecco's Modified Eagle's Medium (Sigma-Aldrich, Co). Culture cells were passaged every 3 to 5 days upon reaching confluence. Each animal was subcutaneously implanted (on the right flank using 26G needle and a 1 cc syringe) at 4-6 weeks of age with 5×10^6 H460 cells suspended in 0.05 mL of a solution consisting of 50% Matrigel® (Corning Incorporated Life Sciences) and 50% medium without serum or antibiotics.
as §5, §6, §7
Tables and figures summarize the data obtained from complete experimental groups, i.e. those groups keeping the initial number of animals, n=8-10.

[11] = MTD (Maximum Tolerated Dose) determination, single iv administration; assay type: in vivo; details: female, mouse, in vivo; mice; iv/SD (single dose); monitored up to 14 days
Source text: as §1, §2

[12] = tested on: PSN1 cells (pancreas adenocarcinoma); assay: cells; details: Homo sapiens, PSN1, 72 h, read-out: TGI
Outline: (§3)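 Cells seeded at 5000/well, attached 18 h, then exposed 72 h to ten 2/5 serial dilutions (10 to 0.003 μg/mL; 1% DMSO final) in triplicate; time-zero plate fixed. SRB staining after glutaraldehyde fixation; growth effects by NCI algorithm, four-parameter logistic fit.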

[13] = tested on: HT29 cells (colorectal adenocarcinoma); assay: cells; details: Homo sapiens, HT-29, 72 h
Outline: as §3

[14] = tested on: MDA-MB-231 cells (breast adenocarcinoma); assay: cells; details: Homo sapiens, MDA-MB-231, 72 h
Outline: as §3

[15] = tested on: A549 cells (lung carcinoma, NSCLC); assay: cells; details: Homo sapiens, A549, 72 h
Outline: as §3

COc1c(C)cc2c(c1O)[C@@H]1[C@@H]3[C@@H]4SC[C@]5(NCCc6c5[nH]c5ccccc65)C(=O)OC[C@@H](c5c6c(c(C)c(OC(C)=O)c54)OCO6)N3[C@@H](O)[C@H](C2)N1C [ET-736, Ecteinascidin 736]
protection of mice in vivo [1]: protects mice in vivo at very low concentrations | MTMD [2]: 0.5 mg/kg | protection of mice in vivo [3]: protects mice in vivo at very low concentrations | protection of mice in vivo [4]: protects mice in vivo at very low concentrations

COc1ccc2[nH]c3c(c2c1)CCN[C@]31CS[C@@H]2c3c(OC(C)=O)c(C)c4c(c3[C@H](COC1=O)N1[C@@H]2[C@H]2c3c(cc(C)c(OC)c3O)C[C@@H]([C@@H]1O)N2C)OCO4 [PM01183, reference compound]
Median Tumor Volume ([5]; Day 2): 317.5 mm^3 and 372.4 mm^3 and 395.6 mm^3 | Median Tumor Volume ([5]; Day 5): 404.0 mm^3 and 474.1 mm^3 and 572.4 mm^3 | Median Tumor Volume ([5]; Day 7): 485.7 mm^3 and 571.8 mm^3 and 766.6 mm^3 | Median Tumor Volume ([5]; Day 9): 604.6 mm^3 and 787.9 mm^3 and 950.7 mm^3 | Median Tumor Volume ([5]; Day 12): 760.8 mm^3 and 951.1 mm^3 | Median Tumor Volume ([5]; Day 14): 789.6 mm^3 and 1064.4 mm^3 and 1199.4 mm^3 | Median Tumor Volume ([5]; Day 16): 719.5 mm^3 and 1346.1 mm^3 and 1353.1 mm^3 | Median Tumor Volume ([5]; Day 19): 895.9 mm^3 and 1691.8 mm^3 and 1294.3 mm^3 | Median Tumor Volume ([5]; Day 21): 1051.3 mm^3 and 1920.0 mm^3 and 1335.1 mm^3 | Median Tumor Volume ([5]; Day 23): 2011.4 mm^3 and 1320.3 mm^3 | Median Tumor Volume ([5]; Day 26): 1901.2 mm^3 and 2102.2 mm^3 and 1364.5 mm^3 | Median Tumor Volume ([5]; Day 28): 2028.9 mm^3 | Median Tumor Volume ([5]; Day 30): 1671.9 mm^3 | Median Tumor Volume ([5]; Day 33): 2009.2 mm^3 | Median Tumor Volume ([6]; Day 4): 177.2 mm^3 | Median Tumor Volume ([6]; Day 7): 189.0 mm^3 and 185.9 mm^3 and 186.3 mm^3 | Median Tumor Volume ([6]; Day 11): 250.7 mm^3 | Median Tumor Volume ([6]; Day 14): 230.1 mm^3 and 290.8 mm^3 and 266.1 mm^3 | Median Tumor Volume ([6]; Day 18): 327.7 mm^3 | Median Tumor Volume ([6]; Day 21): 305.9 mm^3 and 337.9 mm^3 and 391.0 mm^3 | Median Tumor Volume ([6]; Day 25): 493.1 mm^3 | Median Tumor Volume ([6]; Day 28): 535.8 mm^3 and 507.4 mm^3 and 627.3 mm^3 | Median Tumor Volume ([6]; Day 32): 789.0 mm^3 | Median Tumor Volume ([6]; Day 35): 819.7 mm^3 and 796.1 mm^3 | Median Tumor Volume ([6]; Day 36): 1022.0 mm^3 | Median Tumor Volume ([6]; Day 39): 1294.2 mm^3 | Median Tumor Volume ([6]; Day 42): 962.7 mm^3 and 1062.5 mm^3 and 1643.3 mm^3 | Median Tumor Volume ([6]; Day 46): 1658.9 mm^3 | Median Tumor Volume ([6]; Day 49): 1301.3 mm^3 and 1416.3 mm^3 and 1938.0 mm^3 | Median Tumor Volume ([6]; Day 52): 2199.4 mm^3 | Median Tumor Volume ([6]; Day 56): 1673.3 mm^3 | Median Tumor Volume ([6]; Day 63): 1811.9 mm^3 | Total diameter (tumor + leg) ([7]; Day 2): 9.8 mm | Total diameter (tumor + leg) ([7]; Day 2, iv Days 0, 7 and 14, PM01183 […], Compound D 0.5 mg/kg): 9.2 mm | Total diameter (tumor + leg) ([7]; Day 5): 9.7 mm | Total diameter (tumor + leg) ([7]; Day 7): 11.4 mm | Total diameter (tumor + leg) ([7]; Day 7, iv Days 0, 7 and 14, PM01183 […], 4-R 0.30 mg/kg): 11.2 mm | Total diameter (tumor + leg) ([7]; Day 7, iv Days 0, 7 and 14, PM01183 […], Compound D 0.5 mg/kg): 12.2 mm | Total diameter (tumor + leg) ([7]; Day 9): 12.7 mm | Total diameter (tumor + leg) ([7]; Day 9, iv Days 0, 7 and 14, PM01183 […], 4-R 0.30 mg/kg): 12.3 mm | Total diameter (tumor + leg) ([7]; Day 9, iv Days 0, 7 and 14, PM01183 […], Compound D 0.5 mg/kg): 12.6 mm | Total diameter (tumor + leg) ([7]; Day 12): 13.7 mm | Total diameter (tumor + leg) ([7]; Day 12, iv Days 0, 7 and 14, PM01183 […], Compound D 0.5 mg/kg): 13.1 mm | Total diameter (tumor + leg) ([7]; Day 14): 14.6 mm | Total diameter (tumor + leg) ([7]; Day 14, iv Days 0, 7 and 14, PM01183 […], 4-R 0.30 mg/kg): 14.6 mm | Total diameter (tumor + leg) ([7]; Day 14, iv Days 0, 7 and 14, PM01183 […], Compound D 0.5 mg/kg): 14.6 mm | Total diameter (tumor + leg) ([7]; Day 16): 15.5 mm | Total diameter (tumor + leg) ([7]; Day 16, iv Days 0, 7 and 14, PM01183 […], Compound D 0.5 mg/kg): 14.5 mm | Total diameter (tumor + leg) ([7]; Day 19): 15.6 mm | Total diameter (tumor + leg) ([7]; Day 19, iv Days 0, 7 and 14, PM01183 […], Compound D 0.5 mg/kg): 15.0 mm | Total diameter (tumor + leg) ([7]; Day 21): 18.0 mm | Total diameter (tumor + leg) ([7]; Day 21, iv Days 0, 7 and 14, PM01183 […], 4-R 0.30 mg/kg): 15.1 mm | Total diameter (tumor + leg) ([7]; Day 21, iv Days 0, 7 and 14, PM01183 […], Compound D 0.5 mg/kg): 18.0 mm | Total diameter (tumor + leg) ([7]; Day 23, iv Days 0, 7 and 14, PM01183 […], 4-R 0.30 mg/kg): 16.3 mm | Median Tumor Volume ([8]; Day 2): 235.5 mm^3 and 236.5 mm^3 | Median Tumor Volume ([8]; Day 3): 454.5 mm^3 | Median Tumor Volume ([8]; Day 4): 463.2 mm^3 | Median Tumor Volume ([8]; Day 5): 671.2 mm^3 and 772.1 mm^3 | Median Tumor Volume ([8]; Day 7): 1048.9 mm^3 and 1161.5 mm^3 and 986.3 mm^3 | Median Tumor Volume ([8]; Day 9): 1451.4 mm^3 | Median Tumor Volume ([8]; Day 10): 1615.6 mm^3 | Median Tumor Volume ([8]; Day 11): 2062 mm^3 and 2062.0 mm^3 | Median Tumor Volume ([8]; Day 12): 2020.3 mm^3 and 1703.0 mm^3 | Median Tumor Volume ([8]; Day 14): 2029.3 mm^3 | in vivo activity [9]: significant in vivo activity | Median Tumor Volume ([10]; Day 2): 457.0 mm^3 | Median Tumor Volume ([10]; Day 4): 861.5 mm^3 | Median Tumor Volume ([10]; Day 7): 940.4 mm^3 and 1004.0 mm^3 and 1280.2 mm^3 | Median Tumor Volume ([10]; Day 9): 1210.3 mm^3 and 1211.3 mm^3 and 1424.9 mm^3 | Median Tumor Volume ([10]; Day 11): 1433.8 mm^3 and 1969.9 mm^3 | Median Tumor Volume ([10]; Day 12): 1515.4 mm^3 | Median Tumor Volume ([10]; Day 14): 1529.5 mm^3 and 1633.3 mm^3 | Median Tumor Volume ([10]; Day 16): 1723.9 mm^3 | Median Tumor Volume ([10]; Day 19): 2112.3 mm^3 | Median Tumor Volume ([10]; Day 21): 2409.4 mm^3

COc1ccc2[nH]c3c(c2c1)C[C@H](CO)N[C@]31CS[C@@H]2c3c(OC(C)=O)c(C)c4c(c3[C@H](COC1=O)N1[C@@H]2[C@H]2c3c(cc(C)c(OC)c3O)C[C@@H]([C@@H]1O)N2C)OCO4 [Compound 19-R]
MTD at 14 days [11]: 0.15 mg/kg | MTMD [2]: 0.15 mg/kg | IC (total growth inhibition) [12]: 0.00135 µM | CC50 ([13]; read-out: LC50): > 123 nM | IC (total growth inhibition) ([13]; read-out: TGI): 0.00172 µM | CC50 ([14]; read-out: LC50): > 123 nM | IC (total growth inhibition) ([14]; read-out: TGI): 0.00135 µM | CC50 ([15]; read-out: LC50): > 123 nM | IC (total growth inhibition) ([15]; read-out: TGI): 0.00356 µM
